Drawing on patent publication US12435072B2, “Compounds” (Vicore Pharma AB, priority 2019, dated 2025), this text covers IC50, inhibition and half-life for 7 compounds.

For series [1], the target named is T1, human recombinant AT2 receptor (Homo sapiens, UniProt P50052).
T1 construct: purchased Eurofins ITEM26
T1 sequence (P50052 1-363): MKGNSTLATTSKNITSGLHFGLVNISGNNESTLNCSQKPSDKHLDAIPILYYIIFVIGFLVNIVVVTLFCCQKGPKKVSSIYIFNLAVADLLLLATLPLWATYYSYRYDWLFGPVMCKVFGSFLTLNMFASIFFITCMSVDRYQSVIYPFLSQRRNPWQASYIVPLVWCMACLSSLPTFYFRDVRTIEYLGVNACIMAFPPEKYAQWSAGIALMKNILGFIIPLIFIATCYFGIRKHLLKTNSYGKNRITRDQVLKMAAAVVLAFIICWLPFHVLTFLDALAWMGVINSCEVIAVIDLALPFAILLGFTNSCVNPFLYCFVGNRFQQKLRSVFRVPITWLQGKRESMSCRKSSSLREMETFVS
In words: Binding to AT2 receptor, radiometric scintillation assay (Eurofins). As to conditions: ligand 125I CGP 42112A, tested at 1, 10, 100 and 1000 nM. The protocol:
(§1) Compounds were evaluated for binding to the human recombinant AT2 and AT1 receptor according to Eurofins protocol ITEM26 and ITEM24 using a radiometric scintillation assay.

For series [2], the target named is T2, human recombinant AT1 receptor (Homo sapiens, UniProt P30556).
T2 construct: purchased Eurofins ITEM24
T2 sequence (P30556 1-359): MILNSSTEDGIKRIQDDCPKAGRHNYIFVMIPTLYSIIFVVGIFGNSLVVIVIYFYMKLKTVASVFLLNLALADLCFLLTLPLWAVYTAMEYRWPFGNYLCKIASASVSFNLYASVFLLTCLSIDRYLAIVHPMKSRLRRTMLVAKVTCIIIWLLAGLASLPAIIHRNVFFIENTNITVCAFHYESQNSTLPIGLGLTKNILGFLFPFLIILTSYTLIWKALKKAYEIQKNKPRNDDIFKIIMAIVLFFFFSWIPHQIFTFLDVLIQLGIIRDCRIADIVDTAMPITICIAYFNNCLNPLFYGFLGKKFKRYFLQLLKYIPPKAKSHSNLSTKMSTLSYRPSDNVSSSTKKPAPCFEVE
In words: Binding to AT1 receptor, radiometric scintillation assay (Eurofins). As to conditions: ligand 125I(sar1,Ile8)-AT-II, tested at 1 and 10 μM. As to the method: as §1

The target of another series is T3, CYP1A (Homo sapiens, UniProt P05177).
T3 construct: incubated with human liver microsomes; tissue Eurofins ITEMG232; host or cells: human liver microsomes
T3 sequence (P05177 1-516): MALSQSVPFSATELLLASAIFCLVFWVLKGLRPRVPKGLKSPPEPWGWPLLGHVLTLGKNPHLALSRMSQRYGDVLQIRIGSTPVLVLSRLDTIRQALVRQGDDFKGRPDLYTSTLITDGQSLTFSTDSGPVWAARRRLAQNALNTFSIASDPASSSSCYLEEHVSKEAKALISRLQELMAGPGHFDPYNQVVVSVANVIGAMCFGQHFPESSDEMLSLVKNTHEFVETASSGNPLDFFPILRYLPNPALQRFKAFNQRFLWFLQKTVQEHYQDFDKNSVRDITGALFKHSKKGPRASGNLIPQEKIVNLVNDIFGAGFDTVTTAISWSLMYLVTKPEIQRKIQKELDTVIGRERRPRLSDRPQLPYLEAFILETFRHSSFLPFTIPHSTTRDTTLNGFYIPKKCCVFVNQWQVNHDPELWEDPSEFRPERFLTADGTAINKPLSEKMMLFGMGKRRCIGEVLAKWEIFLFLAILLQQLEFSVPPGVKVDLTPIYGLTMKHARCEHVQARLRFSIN
In words: CYP inhibition in human liver microsomes, CYP1A. The format is in vitro ADME. As to conditions: probe phenacetin, substrate phenacetin, read-out: CYP1A Inh %. The protocol:
(§2) The following substrates were used: CYP1A phenacetin, CYP2B6 bupropion, CYP2C8 paclitaxel and amodiaquine, CYP2C9 diclofenac, CYP2C19 omeprazole, CYP2D6 dextromethorphan, CYP3A midazolam and testosterone. At the end of the incubation, the formation of metabolite was monitored by HPLC-MS/MS as the peak area response.
A general note: Microsomes from liver hold many membrane-bound enzymes, among them those of drug oxidation.

The target in a further series is T4, CYP2B6 (Homo sapiens, UniProt P20813).
T4 construct: incubated with human liver microsomes; tissue Eurofins ITEMG232; host or cells: human liver microsomes
T4 sequence (P20813 1-491): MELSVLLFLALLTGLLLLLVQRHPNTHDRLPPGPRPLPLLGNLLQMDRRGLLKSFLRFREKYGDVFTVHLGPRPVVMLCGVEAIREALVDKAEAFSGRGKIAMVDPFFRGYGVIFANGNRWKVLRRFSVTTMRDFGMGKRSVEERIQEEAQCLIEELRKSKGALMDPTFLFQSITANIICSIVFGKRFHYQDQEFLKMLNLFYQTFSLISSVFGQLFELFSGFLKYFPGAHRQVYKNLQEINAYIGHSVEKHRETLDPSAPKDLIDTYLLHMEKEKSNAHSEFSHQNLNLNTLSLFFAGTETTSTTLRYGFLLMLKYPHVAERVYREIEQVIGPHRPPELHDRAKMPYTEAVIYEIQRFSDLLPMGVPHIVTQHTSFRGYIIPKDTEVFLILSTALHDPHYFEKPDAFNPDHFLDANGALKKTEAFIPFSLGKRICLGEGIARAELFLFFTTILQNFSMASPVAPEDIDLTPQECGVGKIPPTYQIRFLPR
In words: CYP inhibition in human liver microsomes, CYP2B6. Type of series: in vitro ADME. As to conditions: probe bupropion, substrate bupropion, read-out: CYP2B6 Inh %. As to the method: as §2

The target of a further series is T5, CYP2C19 (Homo sapiens, UniProt P33261).
T5 construct: incubated with human liver microsomes; tissue Eurofins ITEMG232; host or cells: human liver microsomes
In words: CYP inhibition in human liver microsomes, CYP2C19. Type of series: in vitro ADME. As to conditions: probe omeprazole, substrate omeprazole, read-out: CYP2C19 Inh %. The protocol: as §2

The next series deals with T6, CYP2C8 (Homo sapiens, UniProt P10632).
T6 construct: incubated with human liver microsomes; tissue Eurofins ITEMG232; host or cells: human liver microsomes
T6 sequence (P10632 1-490): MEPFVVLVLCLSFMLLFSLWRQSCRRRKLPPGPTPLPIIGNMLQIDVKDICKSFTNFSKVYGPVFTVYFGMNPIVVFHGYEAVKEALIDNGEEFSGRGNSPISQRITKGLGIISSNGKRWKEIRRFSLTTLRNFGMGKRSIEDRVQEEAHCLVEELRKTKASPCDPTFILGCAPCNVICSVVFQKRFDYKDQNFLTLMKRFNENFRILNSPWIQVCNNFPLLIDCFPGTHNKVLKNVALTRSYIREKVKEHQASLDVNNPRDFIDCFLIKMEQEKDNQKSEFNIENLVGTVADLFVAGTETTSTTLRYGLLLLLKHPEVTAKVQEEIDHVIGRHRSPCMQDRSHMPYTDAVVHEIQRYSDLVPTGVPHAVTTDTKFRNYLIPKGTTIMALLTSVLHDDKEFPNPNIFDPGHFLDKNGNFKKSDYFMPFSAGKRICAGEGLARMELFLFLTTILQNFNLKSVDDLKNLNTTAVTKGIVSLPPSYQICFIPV
The series can be described thus: CYP inhibition in human liver microsomes, CYP2C8. As to conditions: probe paclitaxel and amodiaquine, substrate paclitaxel and amodiaquine, read-out: CYP2C8 Inh %. Type of series: in vitro ADME. The protocol:
as §2

Another series addresses T7, CYP2D6 (Homo sapiens, UniProt P10635).
T7 construct: incubated with human liver microsomes; tissue Eurofins ITEMG232; host or cells: human liver microsomes
In words: CYP inhibition in human liver microsomes, CYP2D6. Type of series: in vitro ADME. As to conditions: probe dextromethorphan, substrate dextromethorphan, read-out: CYP2D6 Inh %. As to the method:
as §2

Another series concerns CYP3A4&5. In words: CYP inhibition in human liver microsomes, CYP3A4&5 (testosterone). The format is in vitro ADME. As to conditions: probe testosterone, substrate testosterone, read-out: CYP3A4&5 testosterone Inh %. As to the method: as §2
The target in another series is CYP2C9 (Homo sapiens, UniProt P11712). The series can be described thus: CYP inhibition in human liver microsomes, CYP2C9. Type of series: in vitro ADME. Further details: incubated with human liver microsomes; tissue Eurofins ITEMG232; host or cells: human liver microsomes. As to conditions: probe diclofenac, substrate diclofenac, read-out: CYP2C9 Inh %. As to the method: as §2

A further series addresses CYP3A4 (Homo sapiens, UniProt P08684). In words: CYP inhibition in human liver microsomes, CYP3A4 (midazolam). The format is in vitro ADME. Also on record: incubated with human liver microsomes; tissue Eurofins ITEMG232; host or cells: human liver microsomes. As to conditions: probe midazolam, substrate midazolam, read-out: CYP3A4 midazolam Inh %. As to the method:
as §2

Series [3] can be described thus: Metabolic stability in pooled human liver microsomes. As to conditions: pooled human liver microsomes 0.5 mg/ml, 1 μM test compound, 37° C. The format is in vitro ADME. The protocol: Pooled human liver microsomes in PBS at a concentration of 0.5 mg/ml was incubated with or without 1 mM NADPH for 70 min at 37° C. Test compound was added after 10 minutes to a final concentration of 1 μM. Samples were withdrawn at 0, 5, 15 and 60 minutes and added to test tubes containing acetonitrile, to stop the reaction, and with terfenadine, used as internal standard. After centrifugation at 10 000×g for 5 minutes the supernatant was diluted 1:1 with 1% formic acid. Samples were separated on a reverse phase column and detected by triple quadrupole MSMS (Agilant model 6540). The concentration of the parent compound at the different time points was measured with an external standard curve using terfenadine as internal standard and the initial metabolic rate in the presence or absence of NADPH calculated.

Where [4] appears, read: with 1 mM NADPH, read-out: T1/2, + NaDPH.
[5] abbreviates: without NADPH, read-out: T1/2, no NaDPH.

Read-outs that look alike come from different tables or passages of the source. Bounds are passed on as bounds.

CYP2C9, sequence (P11712 whole entry): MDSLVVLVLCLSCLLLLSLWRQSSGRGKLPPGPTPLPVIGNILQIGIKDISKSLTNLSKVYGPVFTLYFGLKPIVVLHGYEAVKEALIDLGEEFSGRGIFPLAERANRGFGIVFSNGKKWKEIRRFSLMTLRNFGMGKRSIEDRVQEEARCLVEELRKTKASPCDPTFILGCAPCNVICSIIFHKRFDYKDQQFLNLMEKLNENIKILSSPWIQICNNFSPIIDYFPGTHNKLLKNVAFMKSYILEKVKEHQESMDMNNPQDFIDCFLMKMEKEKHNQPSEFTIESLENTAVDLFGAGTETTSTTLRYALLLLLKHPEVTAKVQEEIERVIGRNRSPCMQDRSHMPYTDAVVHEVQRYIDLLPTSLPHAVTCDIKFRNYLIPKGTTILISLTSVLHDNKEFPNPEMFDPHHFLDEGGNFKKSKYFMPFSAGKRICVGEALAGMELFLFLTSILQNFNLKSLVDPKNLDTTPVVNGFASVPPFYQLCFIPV
T5 sequence (P33261 whole entry): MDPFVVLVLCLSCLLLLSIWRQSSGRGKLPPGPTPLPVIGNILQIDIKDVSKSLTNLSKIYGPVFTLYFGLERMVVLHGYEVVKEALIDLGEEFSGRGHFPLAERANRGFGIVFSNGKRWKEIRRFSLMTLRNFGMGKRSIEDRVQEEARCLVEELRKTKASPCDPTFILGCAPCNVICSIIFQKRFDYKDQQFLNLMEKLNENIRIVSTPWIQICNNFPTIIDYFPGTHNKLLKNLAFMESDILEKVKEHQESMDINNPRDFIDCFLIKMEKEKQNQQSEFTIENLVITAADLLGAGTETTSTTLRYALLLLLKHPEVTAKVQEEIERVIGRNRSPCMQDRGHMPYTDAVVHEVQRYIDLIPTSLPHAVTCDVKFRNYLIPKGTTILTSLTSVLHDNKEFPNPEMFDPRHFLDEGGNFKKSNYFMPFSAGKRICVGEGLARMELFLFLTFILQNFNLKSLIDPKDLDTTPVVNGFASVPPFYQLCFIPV
T7 sequence (P10635 whole entry): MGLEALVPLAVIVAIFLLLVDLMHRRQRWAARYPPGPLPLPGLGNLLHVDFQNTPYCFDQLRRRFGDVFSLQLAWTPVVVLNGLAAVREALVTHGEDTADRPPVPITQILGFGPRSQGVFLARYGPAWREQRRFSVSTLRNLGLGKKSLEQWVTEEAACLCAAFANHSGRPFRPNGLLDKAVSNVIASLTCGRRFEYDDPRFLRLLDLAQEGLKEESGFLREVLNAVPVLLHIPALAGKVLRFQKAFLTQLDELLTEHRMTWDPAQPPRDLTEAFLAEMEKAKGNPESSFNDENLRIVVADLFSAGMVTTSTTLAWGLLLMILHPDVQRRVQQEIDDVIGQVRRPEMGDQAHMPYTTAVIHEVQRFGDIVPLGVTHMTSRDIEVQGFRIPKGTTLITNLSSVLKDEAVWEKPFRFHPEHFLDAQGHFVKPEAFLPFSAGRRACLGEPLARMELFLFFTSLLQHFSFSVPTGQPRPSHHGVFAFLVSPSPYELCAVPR
CYP3A4, sequence (P08684 whole entry): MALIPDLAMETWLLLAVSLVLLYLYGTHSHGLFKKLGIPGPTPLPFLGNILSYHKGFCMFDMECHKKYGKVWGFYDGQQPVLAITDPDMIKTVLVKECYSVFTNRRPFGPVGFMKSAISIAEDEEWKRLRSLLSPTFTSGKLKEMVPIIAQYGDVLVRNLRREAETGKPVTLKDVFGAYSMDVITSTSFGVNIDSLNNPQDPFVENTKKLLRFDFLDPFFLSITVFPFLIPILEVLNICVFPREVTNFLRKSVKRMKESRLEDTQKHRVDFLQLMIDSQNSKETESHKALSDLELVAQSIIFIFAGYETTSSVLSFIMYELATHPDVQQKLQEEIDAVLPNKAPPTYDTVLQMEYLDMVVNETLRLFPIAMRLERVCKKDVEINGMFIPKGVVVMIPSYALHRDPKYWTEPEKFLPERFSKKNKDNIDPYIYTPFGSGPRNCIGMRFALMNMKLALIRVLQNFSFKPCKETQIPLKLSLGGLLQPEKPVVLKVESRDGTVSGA

As to `Cc1cn(Cc2ccc(-c3cc(CC(C)C)sc3S(=O)(=O)NC(=O)NCc3ccccc3)cc2)c(C)n1` [Example 10, 1-Benzyl-3-(3-{p-[(2,4-dimethyl-1H-imidazol-1-yl)methyl]phenyl}-5-isobutyl-2-thienylsulfonyl)urea], the IC50 in series [1] was found to be 0.0906 µM; in [2], 6 µM. Also, the inhibition at 10 µM at CYP1A was -5%; at CYP2B6, 15%; on CYP2C19, 61%; on CYP2C8, 48%; at CYP2D6 it was 31%; in the series on CYP3A4&5, 29%. In addition, the inhibition at 10 µM stood at 50% at CYP2C9 and 25% on CYP3A4.

As for `Cc1nccn1Cc1ccc(-c2cc(CC(C)C)sc2S(=O)(=O)NC(=O)NCCCC(F)(F)F)cc1F` [Example 18, 3-(3-{3-Fluoro-4-[(2-methyl-1H-imidazol-1-yl)methyl]phenyl}-5-isobutyl-2-thienylsulfonyl)-1-(4,4,4-trifluorobutyl)urea], the half-life at 1 μM in series [3] (setting [4]) is 30 min; in series [3] (setting [5]) it was more than 60 min. The inhibition at 10 µM on CYP1A was 15%; on CYP2B6, 59%; on CYP2C19 it was 78%; at CYP2C8, 72%; at CYP2D6, 20%; in the series on CYP3A4&5, 24%. For the same compound, the figures for the inhibition at 10 µM at CYP2C9 and on CYP3A4 were 62% and 50%, respectively.

Take `Cc1nccn1Cc1ccc(-c2cc(CC(C)C)sc2S(=O)(=O)NC(=O)NCCC(F)(F)F)nc1` [Example 19, 3-(5-Isobutyl-3-{5-[(2-methyl-1H-imidazol-1-yl)methyl]-2-pyridyl}-2-thienylsulfonyl)-1-(3,3,3-trifluoropropyl)urea]: the IC50 turned out to be 0.127 µM in [1] and 83 µM in [2].

With `Cc1nccn1Cc1ncc(-c2cc(CC(C)C)sc2S(=O)(=O)NC(=O)NCc2ccccn2)cn1` [Example 22, 3-(5-Isobutyl-3-{2-[(2-methyl-1H-imidazol-1-yl)methyl]-5-pyrimidinyl}-2-thienylsulfonyl)-1-[(2-pyridyl)methyl]urea], the IC50 was determined as 0.0169 µM in series [1] and 51 µM in [2].

`Cc1nccn1Cc1ccc(-c2cc(CC(C)C)sc2S(=O)(=O)NC(=O)NCc2cc(F)cc(F)c2)nc1` [Example 23, 1-[(3,5-Difluorophenyl)methyl]-3-(5-isobutyl-3-{5-[(2-methyl-1H-imidazol-1-yl)methyl]-2-pyridyl}-2-thienylsulfonyl)urea]: the figures for the IC50 in series [1] and in [2] were 0.357 µM and 16 µM, respectively.

With `CCc1nccn1Cc1ccc(-c2cc(CC(C)C)sc2S(=O)(=O)NC(=O)NCCC(F)(F)F)cc1F.O=C(O)C(F)(F)F` [Example 30, 1-[(3-{4-[(2-ethyl-1H-imidazol-1-yl)methyl]-3-fluorophenyl}-5-(2-methylpropyl)thiophen-2-yl)sulfonyl]-3-(3,3,3-trifluoropropyl)urea trifluoroacetic acid], the half-life at 1 μM was 40 min in series [3] (setting [4]) and more than 60 min in series [3] (setting [5]). Further, the inhibition at 10 µM at CYP1A was -1%; at CYP2B6, 30%; at CYP2C19, 53%; on CYP2C8, 64%; on CYP2D6 it was 12%; in the series on CYP3A4&5, 13%. For the same compound, the results for the inhibition at 10 µM at CYP2C9 and at CYP3A4 were 61% and -3%, respectively.

With `CC(C)Cc1cc(-c2ccc(Cn3ccnc3C(C)C)c(F)c2)c(S(=O)(=O)NC(=O)NCCCC(F)(F)F)s1` [Example 42, 1-{[3-(3-fluoro-4-{[2-(propan-2-yl)-1H-imidazol-1-yl]methyl}phenyl)-5-(2-methylpropyl)thiophen-2-yl]sulfonyl}-3-(4,4,4-trifluorobutyl)urea trifluoroacetic acid], the IC50 in series [1] amounted to 0.0029 µM; in [2] it was 5 µM.

As a reminder, the IC50 is the concentration at which inhibition is half-maximal.
